Measured values published in US20130121930A1, “Use of Glyceryl Trinitrate for Treating Hematomas” (priority 2010, published 2013).

System: hematomas
Assay: Topically applied GTN on hematomas, general finding compared to untreated hematoma
Assay type: in vivo
From the text: Instead of darkening of the skin, the healing occurs with a green, followed by a yellow, coloration of the affected skin area.

[1] = 1.2 to 6 mg GTN on the day of injury, then daily 0.8 to 1.6 mg GTN, compared to an untreated hematoma

O=[N+]([O-])OCC(CO[N+](=O)[O-])O[N+](=O)[O-] [GTN, glyceryl trinitrate]
typical darkening of the affected skin sites (1.2 to 6 mg GTN on the day of injury, then daily 0.8 to 1.6 mg GTN): prevents the typical darkening | individual healing phases [1]: significantly shortened | overall healing period for the treated hematomas [1]: reduced by one-half | healing of hematomas (topically applied): greatly accelerates
